Three molecules from paper PMC11602115 (Journal of Medicinal Chemistry, 2017) can be followed below.

Like-named read-outs stand apart in the source and are kept apart here. Bounds are passed on as bounds.

Assay type in all cases: cell-based
The target of assay [1] is T1, human DP1 receptor (Homo sapiens, UniProt Q13258).
T1 construct: expressed in transfected cells
T1 sequence (Q13258 1-359): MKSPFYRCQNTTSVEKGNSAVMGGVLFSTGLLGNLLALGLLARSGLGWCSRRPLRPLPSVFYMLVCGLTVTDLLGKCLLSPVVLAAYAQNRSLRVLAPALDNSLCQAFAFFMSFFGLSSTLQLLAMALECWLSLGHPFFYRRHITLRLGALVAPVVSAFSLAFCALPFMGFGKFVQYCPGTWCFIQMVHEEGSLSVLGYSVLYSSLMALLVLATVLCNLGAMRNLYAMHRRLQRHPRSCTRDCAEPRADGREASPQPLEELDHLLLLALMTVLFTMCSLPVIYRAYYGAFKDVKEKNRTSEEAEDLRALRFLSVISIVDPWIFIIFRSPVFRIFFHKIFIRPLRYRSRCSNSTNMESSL
As to the kind of experiment: HTRF cAMP assay, recombinant human DP1 receptor in CHO-K1 cells. As to conditions: for Emax: CHO-K1, intrinsic activity relative to 1 μM PGD2, read-out: hDP1 % IA; for EC50: HTRF (cAMP) human DP1 receptor assay, mean of at least three determinations, read-out: EC50 hDP1; for DP1 % I.A: cAMP HTRF agonist assay (Gs), Table Sup2. (TR-FRET usually uses a lanthanide donor and a delayed reading to cut background.)

In assay [2] the target is EP2 (Homo sapiens, UniProt P43116). As to the kind of experiment: cAMP HTRF agonist assay, EP2. As to conditions: for agonist activity at EP2: HTRF cAMP functional assay. The source says: (§1) Table Sup2: Data with some comparator compounds in functional assays. […]
The target of assay [3] is EP4 (Homo sapiens, UniProt P35408). As to the kind of experiment: cAMP HTRF agonist assay, EP4. The following applies: for agonist activity at EP4: HTRF cAMP functional assay. The source says: Table Sup2: Data with some comparator compounds in functional assays.
Compound DP1 EP1 EP2 EP3v6 EP4
EC50, µµµµM (% I.A) EC50, µµµµM (% I.A) EC50, µµµµM (% I.A) EC50, µµµµM (% I.A) EC50, µµµµM (% I.A)
n = 3 n = 2 n = 8 n = 6 n = 6 […]

Assay [4] addresses IP (Homo sapiens, UniProt P43119). As to the kind of experiment: HTRF cAMP assay, recombinant human IP receptor stably expressed in CHO-K1 cells. Also noted: expressed in transfected cells.
For assay [5], the target named is rat IP (Rattus norvegicus, UniProt P43253). Kind of assay: HTRF cAMP assay, recombinant rat IP receptor. The arrangement: expressed in transfected cells. As to conditions: for EC50: HTRF (cAMP) rat IP receptor assay, mean of at least three determinations; for Emax: read-out: rIP % IA.
Assay [6] deals with T2, EP3v6 (Homo sapiens, UniProt P43115).
T2 sequence (P43115 1-374 isoform P43115-4): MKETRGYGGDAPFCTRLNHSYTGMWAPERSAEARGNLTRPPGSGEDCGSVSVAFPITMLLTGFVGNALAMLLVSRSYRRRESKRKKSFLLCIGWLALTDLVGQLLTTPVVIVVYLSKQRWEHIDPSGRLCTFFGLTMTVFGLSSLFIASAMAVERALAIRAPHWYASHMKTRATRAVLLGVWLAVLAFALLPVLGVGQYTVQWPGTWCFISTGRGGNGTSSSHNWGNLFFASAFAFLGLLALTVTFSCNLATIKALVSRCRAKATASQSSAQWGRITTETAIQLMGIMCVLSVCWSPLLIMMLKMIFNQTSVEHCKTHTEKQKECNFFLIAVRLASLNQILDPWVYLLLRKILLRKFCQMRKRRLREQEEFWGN
As to the kind of experiment: Melanophore dispersion assay, EP3v6. Also noted: expressed in transfected cells; host or cells: melanophores (transient, electroporation). The following applies: for EC50 / EP3v6 % I.A: melanophore dispersion assay (Gi); for behaviour at EP3 in melanophore platform: potencies similar to binding affinities. The procedure:
For the EP3v6 receptor functional assay, melanophores were transfected by electroporation using 20 μg of recombinant human EP3v6 receptor plasmid DNA per 400 μL of cell suspension. Transfected cells were immediately resuspended in fresh growth medium and plated in 384-well clear, polystyrene microplates. Plated cells were incubated at 27 °C for 48 h after transfection in order to achieve optimal receptor expression. To perform the assay, growth medium was removed from the assay plates and replaced with assay buffer (40 μL/well, 0.7× PBS, pH 7.3, supplemented with 20 nM melatonin to induce pigment aggregation). Following a 90 min incubation at room temperature, a 650 nm absorbance reading was collected and test compounds (10 μL per well) were transferred to the assay plates. Plates were incubated for 90 min at room temperature to allow compound-induced pigment redistribution to take place, and final absorbance reading was then collected. Test compounds were solubilized and serially diluted in DMSO, using 5-fold dilutions, to generate a 10-point dose–response curve with a top concentration of 10 μM (final assay concentration). Samples were then further diluted in assay buffer to achieve a 5× stock prior to addition to the assay plates. A SpectraMax absorbance plate reader (Molecular Devices, Inc.) was used for data collection.
as §1

Usually EC50 stands for the concentration needed to bring the measured effect to its halfway point.

Chain of IP (P43119 whole entry): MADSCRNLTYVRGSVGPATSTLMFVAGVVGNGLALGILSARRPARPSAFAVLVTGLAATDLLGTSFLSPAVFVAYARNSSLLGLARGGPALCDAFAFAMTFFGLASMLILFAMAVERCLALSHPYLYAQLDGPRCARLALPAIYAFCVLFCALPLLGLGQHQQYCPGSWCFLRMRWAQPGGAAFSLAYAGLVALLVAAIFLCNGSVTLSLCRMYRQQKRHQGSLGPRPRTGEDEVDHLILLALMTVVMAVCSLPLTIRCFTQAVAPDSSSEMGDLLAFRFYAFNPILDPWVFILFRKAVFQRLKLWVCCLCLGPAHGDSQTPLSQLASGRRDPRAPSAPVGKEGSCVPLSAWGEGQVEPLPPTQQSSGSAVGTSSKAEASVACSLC
Chain of EP2 (P43116 whole entry): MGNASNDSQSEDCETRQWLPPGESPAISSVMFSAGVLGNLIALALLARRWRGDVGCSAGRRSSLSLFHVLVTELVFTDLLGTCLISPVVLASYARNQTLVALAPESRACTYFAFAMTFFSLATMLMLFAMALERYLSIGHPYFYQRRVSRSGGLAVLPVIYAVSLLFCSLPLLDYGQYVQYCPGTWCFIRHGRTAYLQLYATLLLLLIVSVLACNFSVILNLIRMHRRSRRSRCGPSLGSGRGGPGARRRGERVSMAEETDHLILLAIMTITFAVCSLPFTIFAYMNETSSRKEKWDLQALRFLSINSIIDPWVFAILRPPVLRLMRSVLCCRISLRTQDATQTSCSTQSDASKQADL
Chain of EP4 (P35408 whole entry): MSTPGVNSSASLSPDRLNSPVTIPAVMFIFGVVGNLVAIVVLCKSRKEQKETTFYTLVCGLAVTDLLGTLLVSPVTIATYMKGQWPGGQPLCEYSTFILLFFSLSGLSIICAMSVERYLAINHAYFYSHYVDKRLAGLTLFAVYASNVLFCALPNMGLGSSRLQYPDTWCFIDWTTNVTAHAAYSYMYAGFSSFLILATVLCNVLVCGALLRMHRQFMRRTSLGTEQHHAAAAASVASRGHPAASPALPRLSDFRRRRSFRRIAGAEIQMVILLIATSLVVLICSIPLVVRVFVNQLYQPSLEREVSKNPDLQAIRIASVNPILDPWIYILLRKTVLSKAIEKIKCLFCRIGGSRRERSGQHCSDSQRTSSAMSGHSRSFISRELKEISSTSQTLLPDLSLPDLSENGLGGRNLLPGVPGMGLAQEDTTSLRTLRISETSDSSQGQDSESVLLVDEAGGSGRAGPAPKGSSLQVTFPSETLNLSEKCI
Chain of rat IP (P43253 whole entry): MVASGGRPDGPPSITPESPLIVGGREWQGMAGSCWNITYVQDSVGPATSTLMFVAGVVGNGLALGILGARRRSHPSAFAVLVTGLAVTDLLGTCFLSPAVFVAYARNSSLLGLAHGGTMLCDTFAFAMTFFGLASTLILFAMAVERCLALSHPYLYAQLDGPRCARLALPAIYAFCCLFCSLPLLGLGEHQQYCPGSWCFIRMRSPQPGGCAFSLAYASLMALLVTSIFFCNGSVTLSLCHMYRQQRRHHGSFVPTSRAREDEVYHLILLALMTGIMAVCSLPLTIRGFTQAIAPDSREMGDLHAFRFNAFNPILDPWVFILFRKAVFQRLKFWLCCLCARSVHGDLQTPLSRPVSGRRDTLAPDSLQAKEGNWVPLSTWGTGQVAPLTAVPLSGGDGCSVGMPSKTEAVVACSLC

For the molecule `O=C(O)COC[C@H]1CC[C@H](COC(=O)N(c2ccccc2)c2ccc(Cl)cc2)CC1` [5c, Sodium 2-(((1r,4r)-4-(((4-Chlorophenyl)(phenyl)carbamoyloxy)methyl)cyclohexyl)methoxy)acetate], the Emax in assay [1] is 52%; in assay [4] (CHO-K1, read-out: hIP % IA), 85%; in assay [5] it was 88%. Besides, the EC50 in assay [1] is 850 nM; in assay [2] (cAMP HTRF agonist assay), over 10000 nM; in assay [3] (cAMP HTRF agonist assay) it was over 10000 nM; in assay [5] it was 530 nM; in assay [6] it was 230 nM. Besides, in assay [1], the “DP1 % I.A” value is 52%. Also, in assay [2], the “agonist activity at EP2” value is “no significant agonist activity”. Also, in assay [3], the “agonist activity at EP4” value was “no significant agonist activity”. Also, the “EP3v6 % I.A” value in assay [6] turned out to be 98%. In addition, in assay [6], the “behaviour at EP3 in melanophore platform” value is listed as “behaved as EP3 agonists”.

In the case of `O=C(O)COC[C@H]1CC[C@H](COC(=O)N(c2ccccc2)c2cccc(F)c2)CC1` [5g, 2-(((1r,4r)-4-(((3-Fluorophenyl)(phenyl)carbamoyloxy)methyl)cyclohexyl)methoxy)acetic Acid], the Emax is 61% in assay [1], 85% in assay [4] (CHO-K1; read-out: hIP % IA) and 83% in assay [5]. Also, the EC50 in assay [1] came out at 2760 nM; in assay [4] (HTRF (cAMP) human IP receptor assay; mean of at least three determinations) it was 8.7 nM; in assay [5] it was 284 nM. Also, the “agonist activity at EP2” value in assay [2] is on record as “no significant agonist activity”. Besides, the “agonist activity at EP4” value in assay [3] is reported as “no significant agonist activity”. The “behaviour at EP3 in melanophore platform” value in assay [6] was “behaved as EP3 agonists”.

Take `CC#CCC(C)[C@H](O)/C=C/[C@@H]1[C@H]2C/C(=C/CCCC(=O)O)C[C@H]2C[C@H]1O` (stereo partly shown) [iloprost]: in assay [1], the Emax was found to be 42%, the half-maximal effective concentration (EC50) was found to be 147 nM and the “DP1 % I.A” value stood at 42%. In assay [2] (cAMP HTRF agonist assay), the EC50 was found to be 144 nM and the “EP2 % I.A” value amounted to 110%. In assay [3] (cAMP HTRF agonist assay), the EC50 worked out at 410 nM and the “EP4 % I.A” value is 96%. Further, the Emax in assay [4] (CHO-K1, read-out: hIP % IA) worked out at 101%. For the same molecule, in assay [5], the EC50 turned out to be 0.69 nM and the Emax worked out at 99%. For the same molecule, in assay [6], the EC50 came out at 280 nM and the “EP3v6 % I.A” value stood at 68%.
